Experimental data from patent US4863906A, “2'-deoxy-5-ethynyluridine-3',5'-diestens for treatment of VZV and CMV infections” (Burroughs Wellcome Co., priority 1985, dated 1989).
Read-outs that look alike come from different tables or passages of the source.

Assays:
[1] = test system: Varicella zoster virus (VZV); test: VZV assay in MRC5 cells (similar to HCMV plaque reduction, without agarose overlay); format: cell-based
Method: (§1) Human cytomegalovirus (HCMV) was assayed in monolayers of either MRC5 cells (human embryonic lung) or Detroit 532 cells (human foreskin fibroblasts) in multiwell trays. Activity of compounds was determined in the plaque reduction assay, in which a cell monolayer was infected with a suspension of HCMV, and then overlaid with nutrient agarose in the form of a gel to ensure that there was no spread of virus throughout the culture. A range of concentrations of compound of known molarity was incorporated in the nutrient agarose overlay. Plaque numbers at each concentration were expressed as percentages of the control and a dose-response curve was drawn. From this curve the 50% inhibitory concentration (IC50) was estimated.
Varicella zoster virus (VZV) was assayed in MRC5 cells by a similar method to that for HCMV with the omission of the agarose overlay.

[2] = test system: Human cytomegalovirus (HCMV); test: HCMV plaque reduction assay in MRC5 or Detroit 532 cells; format: cell-based; settings: Human betaherpesvirus 5, MRC5, MRC5 or Detroit 532 cells
Method: as §1

[3] = Cell toxicity: cell growth inhibition assay in Vero cells (MTT uptake); format: cell-based; settings: monkey, 50% inhibition of cell viability at 96 hours, read-out: CCID50 at 96 hr.
Method: Cell toxicity was assessed in a cell growth inhibition assay. Subconfluent cultures of Vero cells grown on 96-well microtiter dishes were exposed to different dilutions of drug, and cell viability determined daily on replicate cultures using uptake of a tetrazolium dye (MTT). The concentration required for a 50% inhibition of cell viability at 96 hours is termed CCID50.

[4] = test system: Herpes simplex type 1 (HSV1); test: HSV1 assay in Vero cells (similar to HCMV plaque reduction assay); format: cell-based; settings: read-out: IC50 HSV1
Method: as §1
Herpes simplex type 1 (HSV1) was assayed in Vero cells in a similar method to that described for the HCMV assay.

vaccinia = settings: Walker et al. 1978; UK 1 601 020; cited from earlier work
herpes simplex viruses = settings: Walker et al. 1978; UK 1 601 020; cited from earlier work
certain DNA viruses = test: Antiviral activity against certain DNA viruses (general statement); settings: DNA viruses other than vaccinia and herpes simplex
[5] = Human alphaherpesvirus 3, MRC5, MRC5 cells, read-out: IC50 VZV
[6] = Human alphaherpesvirus 1, Vero cells

Compound	IC50 [1, 5]	IC50 [2]	CC50 at 96 h ([3]; vero cells)	IC50 [4, 6]	further results
C#Cc1cn([C@H]2C[C@H](OC(=O)c3cccc(Cl)c3)[C@@H](COC(=O)c3cccc(Cl)c3)O2)c(=O)[nH]c1=O [m-Cl Benzoyl/m-Cl Benzoyl]	1.1 µM	2.7 µM	> 100 µM	–	–
C#Cc1cn([C@H]2C[C@H](O)[C@@H](COC(=O)c3ccccc3)O2)c(=O)[nH]c1=O [H/Benzoyl, 5'-O-Benzoyl-2'-deoxy-5-ethynyluridine]	0.7 µM	0.3 µM	1.3 µM	> 20 µM	–
C#Cc1cn([C@H]2C[C@H](OC(=O)c3ccccc3)[C@@H](COC(=O)c3ccccc3)O2)c(=O)[nH]c1=O [Benzoyl/Benzoyl, 2'-Deoxy-3',5'-di-O-benzoyl-5-ethynyluridine]	> 20 µM	4.7 µM	> 100 µM	> 20 µM	–
C#Cc1cn([C@H]2C[C@H](O)[C@@H](COC(=O)c3ccc(C)cc3)O2)c(=O)[nH]c1=O [H/p-Toluoyl, 2'-Deoxy-5-ethynyl-5'-O-toluoyluridine]	> 20 µM	3.4 µM	0.8 µM	> 20 µM	–
C#Cc1cn([C@H]2C[C@H](O)[C@@H](CO)O2)c(=O)[nH]c1=O [H/H, 2'-Deoxy-5-ethynyluridine]	–	–	–	–	Activity against vaccinia (vaccinia): only moderate activity; IC50 ([4]; Human alphaherpesvirus 1, Vero): 4.5 µM; Activity against herpes simplex viruses (herpes simplex viruses): only moderate activity; IC50 ([1]; Human alphaherpesvirus 3, MRC5, read-out: IC50 VZV): 0.06 to 0.3 µM; CC50 at 96 h [3]: 0.3 to 3 µM; Activity against certain DNA viruses (certain DNA viruses): very potent activity
C#Cc1cn([C@H]2C[C@H](OC(=O)c3ccc(C)cc3)[C@@H](COC(=O)c3ccc(C)cc3)O2)c(=O)[nH]c1=O [p-Toluoyl/p-Toluoyl, 2'-Deoxy-3',5'-di-O-p-toluoyl-5-ethynyluridine]	> 20 µM	–	> 100 µM	> 20 µM	–
C#Cc1cn([C@H]2C[C@H](OS(C)(=O)=O)[C@@H](COS(C)(=O)=O)O2)c(=O)[nH]c1=O [Methanesulphonyl/Methanesulphonyl, 2'-Deoxy-3'-5'-di-O-methanesulphonyl-5-ethynyluridine]	16 µM	> 50 µM	–	> 20 µM	–
C#Cc1cn([C@H]2C[C@H](O)[C@@H](COC(=O)c3cccc(Cl)c3)O2)c(=O)[nH]c1=O [H/m-Cl Benzoyl]	< 0.2 µM	0.46 µM	19 µM	–	–
C#Cc1cn([C@H]2C[C@H](OC(C)=O)[C@@H](COC(C)=O)O2)c(=O)[nH]c1=O [Acetyl/Acetyl, 2'-Deoxy-3'-5'-di-O-acetyl-5-ethynyluridine]	–	–	–	> 20 µM	–
C#Cc1cn([C@H]2C[C@H](O)[C@@H](COC(=O)C3CC3)O2)c(=O)[nH]c1=O [H/Cyclopropanoyl, 5'-O-Cyclopropanoyl-2'-deoxy-5-ethynyluridine]	6.5 µM	0.9 µM	15 µM	> 20 µM	–
C#Cc1cn([C@H]2C[C@H](O)[C@@H](COC(=O)CCCCCCC)O2)c(=O)[nH]c1=O [H/Octanoyl, 2'-Deoxy-5-ethynyl-5'-O-octanoyluridine]	< 0.2 µM	2.2 µM	1.8 µM	–	–
C#Cc1cn([C@H]2C[C@H](O)[C@@H](COC(=O)C(C)(C)C)O2)c(=O)[nH]c1=O [H/Pivaloyl, 2'-Deoxy-5-ethynyl-5'-O-pivaloyluridine]	0.6 µM	0.4 µM	10.2 µM	> 20 µM	–
C#Cc1cn([C@H]2C[C@H](OC(=O)c3ccc(OC)cc3)[C@@H](COC(=O)c3ccc(OC)cc3)O2)c(=O)[nH]c1=O [p-Anisoyl/p-Anisoyl, 2'-Deoxy-3',5'-di-O-p-anisoyl-5-ethynyluridine]	> 20 µM	20.7 µM	> 100 µM	> 20 µM	–
C#Cc1cn([C@H]2C[C@H](O)[C@@H](COC(=O)c3ccc(OC)cc3)O2)c(=O)[nH]c1=O [H/p-Anisoyl, 5'-O-p-Anisoyl-2'-Deoxy-5-ethynyluridine]	> 20 µM	2.8 to 3.7 µM	3 µM	> 20 µM	–
C#Cc1cn([C@H]2C[C@H](O)[C@@H](COS(=O)(=O)c3ccc(C)cc3)O2)c(=O)[nH]c1=O [H/p-Tosyl]	–	5.6 µM	–	–	–
C#Cc1cn([C@H]2C[C@H](OC(=O)C(C)(C)C)[C@@H](COC(=O)C(C)(C)C)O2)c(=O)[nH]c1=O [Pivaloyl/Pivaloyl, 2'-Deoxy-5-ethynyl-3',5'-di-O-pivaloyl uridine]	5.5 µM	2 µM	> 100 µM	> 20 µM	–
C#Cc1cn([C@H]2C[C@H](OC(=O)C3CC3)[C@@H](COC(=O)C3CC3)O2)c(=O)[nH]c1=O [Cyclopropanoyl/Cyclopropanoyl, 2'-Deoxy-3',5'-di-O-cyclopropanoyl-5-ethynyluridine]	24 µM	2 µM	> 100 µM	> 20 µM	–
